According to PubChem BioAssay (NCI):
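Dose response: 5 concentrations. Exposure: 48 h. Format: 96-well plates. Endpoint: linear interpolation; highest concentration if not reached. The concentration for full growth arrest is given as TGI.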

What was measured:
Test in all cases: inhibition of tumour cell growth, NCI panel, 48 h
EKVX NSCLC = tested on: EKVX NSCLC
HOP-62 NSCLC = tested on: HOP-62 NSCLC
HCC-2998 colon = tested on: HCC-2998 colon
SF-295 CNS = tested on: SF-295 CNS
M19-MEL melanoma = tested on: M19-MEL melanoma
DMS 114 small cell lung = tested on: DMS 114 small cell lung
SNB-78 CNS = tested on: SNB-78 CNS
786-0 renal = tested on: 786-0 renal
NCI-H23 lung = tested on: NCI-H23 lung
RXF-631 renal = tested on: RXF-631 renal
SK-OV-3 ovarian = tested on: SK-OV-3 ovarian
IGROV1 ovarian = tested on: IGROV1 ovarian
UACC-62 melanoma = tested on: UACC-62 melanoma
NCI-H226 lung = tested on: NCI-H226 lung
NCI-H522 lung = tested on: NCI-H522 lung
DMS 273 small cell lung = tested on: DMS 273 small cell lung
SR leukemia = tested on: SR leukemia
HOP-18 NSCLC = tested on: HOP-18 NSCLC
TK-10 renal = tested on: TK-10 renal
UACC-257 melanoma = tested on: UACC-257 melanoma
A549 NSCLC = tested on: A549 NSCLC
SW-620 colon = tested on: SW-620 colon
HT29 colon = tested on: HT29 colon
DLD-1 colon = tested on: DLD-1 colon
HCT-116 colon = tested on: HCT-116 colon
OVCAR-8 ovarian = tested on: OVCAR-8 ovarian
UO-31 renal = tested on: UO-31 renal
M14 melanoma = tested on: M14 melanoma
ACHN renal = tested on: ACHN renal
LXFL 529 NSCLC = tested on: LXFL 529 NSCLC
KM20L2 colon = tested on: KM20L2 colon
COLO 205 colon = tested on: COLO 205 colon
SN12C renal = tested on: SN12C renal
MOLT-4 leukemia = tested on: MOLT-4 leukemia
K-562 leukemia = tested on: K-562 leukemia
OVCAR-5 ovarian = tested on: OVCAR-5 ovarian
HOP-92 NSCLC = tested on: HOP-92 NSCLC
HCT-15 colon = tested on: HCT-15 colon
SF-539 CNS = tested on: SF-539 CNS
CAKI-1 renal = tested on: CAKI-1 renal
KM12 colon = tested on: KM12 colon
U251 CNS = tested on: U251 CNS
MALME-3M melanoma = tested on: MALME-3M melanoma
OVCAR-4 ovarian = tested on: OVCAR-4 ovarian
OVCAR-3 ovarian = tested on: OVCAR-3 ovarian
SNB-19 CNS = tested on: SNB-19 CNS
SNB-75 CNS = tested on: SNB-75 CNS
SK-MEL-28 melanoma = tested on: SK-MEL-28 melanoma
CCRF-CEM leukemia = tested on: CCRF-CEM leukemia
SF-268 CNS = tested on: SF-268 CNS
NCI-H460 lung = tested on: NCI-H460 lung
HL-60(TB) leukemia = tested on: HL-60(TB) leukemia
SK-MEL-5 melanoma = tested on: SK-MEL-5 melanoma
RXF 393 renal = tested on: RXF 393 renal
RPMI-8226 leukemia = tested on: RPMI-8226 leukemia
SK-MEL-2 melanoma = tested on: SK-MEL-2 melanoma

Measured: TGI

COc1cc(C(=O)C(CO)Oc2ccccc2OC)ccc1O (centres undefined)
> 100 µM: EKVX NSCLC | HOP-62 NSCLC | HCC-2998 colon | SF-295 CNS | M19-MEL melanoma | DMS 114 small cell lung | SNB-78 CNS | 786-0 renal | NCI-H23 lung | RXF-631 renal | SK-OV-3 ovarian | IGROV1 ovarian | UACC-62 melanoma | NCI-H226 lung | NCI-H522 lung | DMS 273 small cell lung | SR leukemia | HOP-18 NSCLC | TK-10 renal | UACC-257 melanoma | A549 NSCLC | SW-620 colon | HT29 colon | DLD-1 colon | HCT-116 colon | OVCAR-8 ovarian | UO-31 renal | M14 melanoma | ACHN renal | LXFL 529 NSCLC | KM20L2 colon | COLO 205 colon | SN12C renal | MOLT-4 leukemia | K-562 leukemia | OVCAR-5 ovarian | HOP-92 NSCLC | HCT-15 colon | SF-539 CNS | CAKI-1 renal | KM12 colon | U251 CNS | MALME-3M melanoma | OVCAR-4 ovarian | OVCAR-3 ovarian | SNB-19 CNS | SNB-75 CNS | SK-MEL-28 melanoma | CCRF-CEM leukemia | SF-268 CNS | NCI-H460 lung | HL-60(TB) leukemia | SK-MEL-5 melanoma

CC12OC3(O)C4C5CC(C6C5C3C61)C42 (centres undefined)
> 100 µM: HOP-62 NSCLC | HCC-2998 colon | M19-MEL melanoma | DMS 114 small cell lung | SNB-78 CNS | 786-0 renal | RXF 393 renal | RXF-631 renal | SK-OV-3 ovarian | UACC-62 melanoma | NCI-H226 lung | NCI-H522 lung | DMS 273 small cell lung | SR leukemia | HOP-18 NSCLC | TK-10 renal | UACC-257 melanoma | A549 NSCLC | SW-620 colon | DLD-1 colon | HCT-116 colon | OVCAR-8 ovarian | UO-31 renal | RPMI-8226 leukemia | SK-MEL-2 melanoma | M14 melanoma | ACHN renal | KM20L2 colon | COLO 205 colon | SN12C renal | MOLT-4 leukemia | K-562 leukemia | HCT-15 colon | SF-539 CNS | CAKI-1 renal | KM12 colon | U251 CNS | MALME-3M melanoma | OVCAR-4 ovarian | SNB-19 CNS | SNB-75 CNS | SK-MEL-28 melanoma | CCRF-CEM leukemia | SF-268 CNS | HL-60(TB) leukemia
53.1 µM: LXFL 529 NSCLC
